Percent of control binding data for 4 molecules are collected here from publication PMC7026418, “The kinase polypharmacology landscape of clinical PARP inhibitors” (Scientific Reports, 2020).

Some targets named below: ACVR2A (Homo sapiens, UniProt P27037); PAK3 (Homo sapiens, UniProt O75914); RET(V804M) (Homo sapiens, UniProt P07949, V804M); CSNK1G3 (Homo sapiens, UniProt Q9Y6M4); ACVR2B (Homo sapiens, UniProt Q13705); MARK3 (Homo sapiens, UniProt P27448); ALK(L1196M) (Homo sapiens, UniProt Q9UM73, L1196M); SRPK3 (Homo sapiens, UniProt Q9UPE1).
Common to all, as to assay: biochemical
Holding throughout (design): DiscoveRx KINOMEscan active site-directed competition binding; percent of control kinase bound to immobilised ligand

Another assay has as its target T1, TXK (Homo sapiens, UniProt P42681).
T1 sequence (P42681 1-527): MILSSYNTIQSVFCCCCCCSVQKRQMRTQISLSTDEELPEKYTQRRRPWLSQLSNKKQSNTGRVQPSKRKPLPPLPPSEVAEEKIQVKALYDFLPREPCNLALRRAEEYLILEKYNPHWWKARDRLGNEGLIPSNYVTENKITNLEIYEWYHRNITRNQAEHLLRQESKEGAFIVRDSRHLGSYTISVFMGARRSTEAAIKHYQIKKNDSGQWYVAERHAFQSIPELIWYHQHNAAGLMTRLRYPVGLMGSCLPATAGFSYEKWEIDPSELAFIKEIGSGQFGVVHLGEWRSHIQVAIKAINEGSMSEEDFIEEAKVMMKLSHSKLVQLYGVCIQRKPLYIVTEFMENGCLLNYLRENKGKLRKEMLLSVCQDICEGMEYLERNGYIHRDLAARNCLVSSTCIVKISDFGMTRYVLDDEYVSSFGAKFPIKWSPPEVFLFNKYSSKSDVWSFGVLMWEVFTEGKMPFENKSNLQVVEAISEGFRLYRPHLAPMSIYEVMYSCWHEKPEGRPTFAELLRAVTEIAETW

The target of assay [1] is T2, ABL1(H396P)-nonphosphorylated (Homo sapiens, UniProt P00519, H396P).
T2 construct: nonphosphorylated

For assay [2], the target named is T3, ABL1(T315I)-phosphorylated (Homo sapiens, UniProt P00519, T315I).
T3 construct: phosphorylated

A further assay concerns the target T4, DRAK2 (Homo sapiens, UniProt O94768).
T4 construct: gene STK17B
T4 sequence (O94768 1-372): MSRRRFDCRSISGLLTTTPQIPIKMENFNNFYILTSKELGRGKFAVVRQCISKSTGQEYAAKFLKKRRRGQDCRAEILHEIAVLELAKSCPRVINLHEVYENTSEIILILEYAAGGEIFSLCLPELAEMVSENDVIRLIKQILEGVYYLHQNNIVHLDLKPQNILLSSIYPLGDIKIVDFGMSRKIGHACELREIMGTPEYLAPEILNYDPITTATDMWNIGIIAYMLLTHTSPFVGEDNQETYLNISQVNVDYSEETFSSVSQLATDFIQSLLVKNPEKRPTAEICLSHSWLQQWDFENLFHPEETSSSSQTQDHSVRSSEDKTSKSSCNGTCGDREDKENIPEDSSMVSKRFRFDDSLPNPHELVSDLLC

Where [3] appears, read: read-out: Niraparib (MK-4827) / %Ctrl @ 10000nM.
Setting [4] is: read-out: Talazoparib (BMN 673) / %Ctrl @ 10000nM.
The mark [5] stands for this setting: read-out: Rucaparib / %Ctrl @ 10000nM, binding competition, % of control.
Where [6] appears, read: read-out: Olaparib / %Ctrl @ 10000nM.

Each structure is given as a SMILES string. Like-named read-outs stand apart in the source and are kept apart here.

ALK(L1196M), sequence (Q9UM73 whole entry L1196M): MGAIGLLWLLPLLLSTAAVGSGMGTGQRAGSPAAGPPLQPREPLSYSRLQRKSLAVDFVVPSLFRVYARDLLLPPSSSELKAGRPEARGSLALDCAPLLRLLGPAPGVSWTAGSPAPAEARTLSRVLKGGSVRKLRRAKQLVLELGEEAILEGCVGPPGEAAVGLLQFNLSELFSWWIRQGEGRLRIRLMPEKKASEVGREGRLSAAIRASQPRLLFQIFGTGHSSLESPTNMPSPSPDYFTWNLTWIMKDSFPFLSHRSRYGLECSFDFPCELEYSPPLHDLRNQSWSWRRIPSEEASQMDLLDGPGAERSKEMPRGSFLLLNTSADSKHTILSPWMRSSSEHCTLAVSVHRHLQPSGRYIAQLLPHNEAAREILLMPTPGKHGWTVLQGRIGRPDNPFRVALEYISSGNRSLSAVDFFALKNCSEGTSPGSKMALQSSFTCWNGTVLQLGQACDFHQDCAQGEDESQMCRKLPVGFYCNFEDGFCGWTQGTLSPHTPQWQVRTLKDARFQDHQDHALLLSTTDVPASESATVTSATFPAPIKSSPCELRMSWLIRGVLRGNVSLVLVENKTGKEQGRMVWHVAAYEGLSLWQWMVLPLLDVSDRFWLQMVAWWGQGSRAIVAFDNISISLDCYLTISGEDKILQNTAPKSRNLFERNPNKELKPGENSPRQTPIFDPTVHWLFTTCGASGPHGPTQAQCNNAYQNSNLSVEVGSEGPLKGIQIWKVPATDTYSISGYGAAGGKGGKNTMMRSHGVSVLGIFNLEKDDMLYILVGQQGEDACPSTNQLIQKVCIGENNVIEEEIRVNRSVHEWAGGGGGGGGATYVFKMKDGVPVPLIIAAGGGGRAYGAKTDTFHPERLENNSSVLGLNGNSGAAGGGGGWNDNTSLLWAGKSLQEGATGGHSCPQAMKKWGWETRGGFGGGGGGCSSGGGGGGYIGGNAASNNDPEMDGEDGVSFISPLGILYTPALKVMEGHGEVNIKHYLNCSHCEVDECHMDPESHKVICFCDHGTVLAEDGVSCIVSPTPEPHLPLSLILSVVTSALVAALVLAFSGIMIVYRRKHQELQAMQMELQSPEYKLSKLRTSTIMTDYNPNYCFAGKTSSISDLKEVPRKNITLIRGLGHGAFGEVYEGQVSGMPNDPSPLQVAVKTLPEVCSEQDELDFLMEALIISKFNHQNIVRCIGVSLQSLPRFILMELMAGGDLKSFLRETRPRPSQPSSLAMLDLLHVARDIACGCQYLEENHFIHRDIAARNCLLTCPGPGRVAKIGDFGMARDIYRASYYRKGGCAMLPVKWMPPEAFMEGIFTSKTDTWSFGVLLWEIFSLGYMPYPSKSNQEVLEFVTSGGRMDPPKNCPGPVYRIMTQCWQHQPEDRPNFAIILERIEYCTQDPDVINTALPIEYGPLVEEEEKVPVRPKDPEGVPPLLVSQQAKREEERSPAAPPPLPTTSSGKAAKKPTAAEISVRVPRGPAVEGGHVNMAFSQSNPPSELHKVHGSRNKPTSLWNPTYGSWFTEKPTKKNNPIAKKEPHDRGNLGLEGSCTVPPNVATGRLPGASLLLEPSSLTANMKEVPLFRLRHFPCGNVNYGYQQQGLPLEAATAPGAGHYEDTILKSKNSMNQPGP
PAK3, sequence (O75914 whole entry): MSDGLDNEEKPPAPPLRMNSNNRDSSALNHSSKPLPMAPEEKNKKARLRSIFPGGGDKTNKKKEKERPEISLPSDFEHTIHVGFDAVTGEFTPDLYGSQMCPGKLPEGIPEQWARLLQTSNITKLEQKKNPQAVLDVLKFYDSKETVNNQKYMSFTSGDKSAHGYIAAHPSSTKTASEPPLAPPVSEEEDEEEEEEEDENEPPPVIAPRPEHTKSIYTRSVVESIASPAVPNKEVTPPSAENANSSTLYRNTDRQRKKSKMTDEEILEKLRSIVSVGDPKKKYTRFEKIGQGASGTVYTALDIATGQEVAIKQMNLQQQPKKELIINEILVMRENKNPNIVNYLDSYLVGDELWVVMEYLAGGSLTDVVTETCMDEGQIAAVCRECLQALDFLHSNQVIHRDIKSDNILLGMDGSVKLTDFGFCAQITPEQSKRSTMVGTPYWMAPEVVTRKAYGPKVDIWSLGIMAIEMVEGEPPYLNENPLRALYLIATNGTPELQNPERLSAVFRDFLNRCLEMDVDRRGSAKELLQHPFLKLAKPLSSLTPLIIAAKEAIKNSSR
ACVR2B, sequence (Q13705 whole entry): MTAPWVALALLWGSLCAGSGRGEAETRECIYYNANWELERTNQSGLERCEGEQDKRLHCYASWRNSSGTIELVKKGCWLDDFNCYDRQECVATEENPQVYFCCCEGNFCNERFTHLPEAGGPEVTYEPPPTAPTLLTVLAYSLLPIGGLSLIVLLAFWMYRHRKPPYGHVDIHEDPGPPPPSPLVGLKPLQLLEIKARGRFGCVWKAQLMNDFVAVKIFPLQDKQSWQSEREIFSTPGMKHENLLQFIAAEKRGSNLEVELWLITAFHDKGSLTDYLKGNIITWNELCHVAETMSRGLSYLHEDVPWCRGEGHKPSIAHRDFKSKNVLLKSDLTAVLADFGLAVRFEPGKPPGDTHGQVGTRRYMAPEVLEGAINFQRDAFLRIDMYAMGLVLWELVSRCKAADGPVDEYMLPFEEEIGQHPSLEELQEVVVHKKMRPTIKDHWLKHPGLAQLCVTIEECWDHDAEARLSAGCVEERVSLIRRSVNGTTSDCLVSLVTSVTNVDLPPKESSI
MARK3, sequence (P27448 whole entry): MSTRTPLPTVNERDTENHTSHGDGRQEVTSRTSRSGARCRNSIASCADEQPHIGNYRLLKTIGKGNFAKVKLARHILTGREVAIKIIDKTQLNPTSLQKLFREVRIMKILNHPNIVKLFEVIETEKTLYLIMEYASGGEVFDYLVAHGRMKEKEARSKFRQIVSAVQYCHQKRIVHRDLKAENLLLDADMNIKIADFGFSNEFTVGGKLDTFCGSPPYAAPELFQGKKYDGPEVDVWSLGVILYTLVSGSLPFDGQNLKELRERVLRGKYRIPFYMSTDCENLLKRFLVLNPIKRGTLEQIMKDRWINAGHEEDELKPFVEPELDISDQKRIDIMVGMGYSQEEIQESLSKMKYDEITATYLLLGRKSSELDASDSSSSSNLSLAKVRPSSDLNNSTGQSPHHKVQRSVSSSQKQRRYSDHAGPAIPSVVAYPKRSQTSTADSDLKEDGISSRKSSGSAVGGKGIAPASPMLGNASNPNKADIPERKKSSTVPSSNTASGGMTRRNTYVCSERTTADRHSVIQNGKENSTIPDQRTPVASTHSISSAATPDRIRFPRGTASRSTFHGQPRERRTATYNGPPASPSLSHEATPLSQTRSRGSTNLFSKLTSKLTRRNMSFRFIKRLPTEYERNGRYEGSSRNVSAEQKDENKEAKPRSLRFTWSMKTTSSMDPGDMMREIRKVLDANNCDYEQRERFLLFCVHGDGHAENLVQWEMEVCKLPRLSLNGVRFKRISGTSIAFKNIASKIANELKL
SRPK3, sequence (Q9UPE1 whole entry): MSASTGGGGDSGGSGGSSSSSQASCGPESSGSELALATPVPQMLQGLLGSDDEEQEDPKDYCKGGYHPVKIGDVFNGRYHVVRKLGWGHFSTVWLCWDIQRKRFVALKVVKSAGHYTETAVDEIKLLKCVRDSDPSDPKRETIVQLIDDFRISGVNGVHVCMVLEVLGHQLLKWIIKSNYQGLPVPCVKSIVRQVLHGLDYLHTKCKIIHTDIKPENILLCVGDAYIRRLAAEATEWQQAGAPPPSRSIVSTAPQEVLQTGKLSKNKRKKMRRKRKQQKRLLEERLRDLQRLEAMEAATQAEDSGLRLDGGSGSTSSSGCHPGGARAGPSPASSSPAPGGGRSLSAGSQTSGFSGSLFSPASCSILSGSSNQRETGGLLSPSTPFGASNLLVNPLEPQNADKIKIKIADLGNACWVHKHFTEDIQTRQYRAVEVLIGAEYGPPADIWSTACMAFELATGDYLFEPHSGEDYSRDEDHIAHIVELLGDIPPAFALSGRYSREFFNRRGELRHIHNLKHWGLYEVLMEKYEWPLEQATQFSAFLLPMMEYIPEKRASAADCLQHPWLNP
ACVR2A, sequence (P27037 whole entry): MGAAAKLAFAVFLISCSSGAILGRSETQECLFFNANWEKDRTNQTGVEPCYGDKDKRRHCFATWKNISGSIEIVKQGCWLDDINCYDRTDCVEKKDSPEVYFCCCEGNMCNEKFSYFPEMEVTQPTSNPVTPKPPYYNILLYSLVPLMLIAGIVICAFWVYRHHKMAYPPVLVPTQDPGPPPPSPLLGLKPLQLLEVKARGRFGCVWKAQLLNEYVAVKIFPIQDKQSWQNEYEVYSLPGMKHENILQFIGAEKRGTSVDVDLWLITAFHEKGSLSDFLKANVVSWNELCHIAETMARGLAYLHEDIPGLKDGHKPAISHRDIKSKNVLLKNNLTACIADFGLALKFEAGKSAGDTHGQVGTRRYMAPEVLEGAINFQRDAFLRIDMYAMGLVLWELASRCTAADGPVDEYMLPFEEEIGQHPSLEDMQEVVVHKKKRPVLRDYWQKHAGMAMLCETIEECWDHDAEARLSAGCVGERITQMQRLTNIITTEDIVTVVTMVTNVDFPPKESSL
CSNK1G3, sequence (Q9Y6M4 whole entry): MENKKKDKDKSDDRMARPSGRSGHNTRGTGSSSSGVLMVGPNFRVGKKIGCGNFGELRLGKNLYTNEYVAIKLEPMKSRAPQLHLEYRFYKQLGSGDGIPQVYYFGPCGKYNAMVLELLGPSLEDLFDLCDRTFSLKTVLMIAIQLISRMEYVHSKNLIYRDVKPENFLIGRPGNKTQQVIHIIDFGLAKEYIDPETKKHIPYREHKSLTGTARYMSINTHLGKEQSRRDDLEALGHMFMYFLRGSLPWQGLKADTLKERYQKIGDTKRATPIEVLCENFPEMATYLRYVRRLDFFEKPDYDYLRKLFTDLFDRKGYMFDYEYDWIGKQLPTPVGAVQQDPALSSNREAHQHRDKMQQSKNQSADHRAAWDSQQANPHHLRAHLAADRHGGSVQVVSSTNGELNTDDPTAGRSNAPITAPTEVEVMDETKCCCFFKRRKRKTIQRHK

As to `NC(=O)c1cccc2cn(-c3ccc([C@@H]4CCCNC4)cc3)nc12` [Niraparib], the percent of control binding at 10 µM at TXK (setting [3]) stood at 86%; on ACVR2A (setting [3]), 99%; in [1] (setting [3]), 65%; in assay [2] (setting [3]) it was 95%; on PAK3 (setting [3]), 67%; at RET(V804M) (setting [3]), 79%. Moreover, the percent of control binding at 10 µM came out at 85% at CSNK1G3 (setting [3]); 100% at ACVR2B (setting [3]); 91% at MARK3 (setting [3]); 81% on ALK(L1196M) (setting [3]); 71% at SRPK3 (setting [3]); 82% at DRAK2 (setting [3]).

As for `Cn1ncnc1[C@H]1c2n[nH]c(=O)c3cc(F)cc(c23)N[C@@H]1c1ccc(F)cc1` [Talazoparib], the percent of control binding at 10 µM at TXK (setting [4]) came to 91%; on ACVR2A (setting [4]), 100%; in assay [1] (setting [4]) it was 92%; in [2] (setting [4]) it was 100%; on PAK3 (setting [4]), 100%; at RET(V804M) (setting [4]), 97%. The percent of control binding at 10 µM is 88% at CSNK1G3 (setting [4]); 100% at ACVR2B (setting [4]); 98% at MARK3 (setting [4]); 100% on ALK(L1196M) (setting [4]); 100% on SRPK3 (setting [4]); 100% on DRAK2 (setting [4]).

Take `CNCc1ccc(-c2[nH]c3cc(F)cc4c3c2CCNC4=O)cc1` [Rucaparib]: the percent of control binding at 10 µM is 100% on TXK (setting [5]); 100% at ACVR2A (setting [5]); 68% in [1] (setting [5]); 67% in assay [2] (setting [5]); 95% on PAK3 (setting [5]); 99% on RET(V804M) (setting [5]). The percent of control binding at 10 µM was determined as 97% at CSNK1G3 (setting [5]); 100% on ACVR2B (setting [5]); 100% at MARK3 (setting [5]); 83% at ALK(L1196M) (setting [5]); 85% on SRPK3 (setting [5]); 98% on DRAK2 (setting [5]).

For `O=C(c1cc(Cc2n[nH]c(=O)c3ccccc23)ccc1F)N1CCN(C(=O)C2CC2)CC1` [Olaparib], the percent of control binding at 10 µM turned out to be 86% at TXK (setting [6]); 95% at ACVR2A (setting [6]); 82% in assay [1] (setting [6]); 87% in [2] (setting [6]); 96% on PAK3 (setting [6]); 90% at RET(V804M) (setting [6]). Also, the percent of control binding at 10 µM on CSNK1G3 (setting [6]) worked out at 93%; at ACVR2B (setting [6]) it was 100%; on MARK3 (setting [6]), 96%; at ALK(L1196M) (setting [6]), 83%; at SRPK3 (setting [6]), 84%; at DRAK2 (setting [6]), 69%.
